Measurements from patent publication US20150366890A1, “COMPOSITIONS AND METHODS FOR TREATING FUNGAL INFECTIONS” (TRUSTEES OF BOSTON UNIVERSITY, priority 2013, published 2015).
Where two headings read alike, the source gives them in different places.

Assays:
Format in all cases: cell-based
[1] = tested on: C. albicans wildtype and DNA repair mutants; assay: Fungicidal killing, CFU assay; details: C. albicans rad50/rad50 and rad52/rad52, 3 hours of drug exposure
Experimental: Overnight yeast cultures were diluted into the indicated media and grown to an OD600 of 0.2, at which point the AFs were added. Colony forming units (CFU) were measured by plating six serial dilutions onto YPD agar plates.
(§1) Overnight yeast cultures were diluted into the indicated media and grown to an OD600 of 0.2, at which point the AFs were added. Colony forming units (CFU) were measured by plating six serial dilutions onto YPD agar plates. Cells treated with MCZ were washed before serial dilution to stop growth inhibition associated with high concentrations of MCZ. CFU were counted after three days of incubation on agar plates. When indicated, thiourea (Fluka) was added 30 min prior to the addition of AFs. HPF (10 μM) (Invitrogen) and Mito Tracker (1 μM) (Invitrogen) dyes were added to PBS-washed cells at the indicated time points and incubated for 30 min prior to flow cytometry measurements, which were taken on the FACSCalibur (Becton-Dickinson). All experiments described in this section were conducted in 0.5 ml of SDC in 24-well plates incubated at 900 rpm and 37° C. for C. albicans and 30° C. and 300 rpm for S. cerevisiae. TUNEL assays were conducted as previously described (Ribeiro et al., 2006) and are described in detail in the TUNEL section of the Experimental Procedures.

[2] = tested on: S. cerevisiae wildtype and deletion strains
[3] = tested on: S. cerevisiae single-deletion yeast strains; assay: High-throughput 96-well screen of AF sensitivity of single-gene knockouts (CFU at start and after 8 hours)
Experimental: To identify genes critical to AF action, the AF sensitivity of single-gene knockouts identified through the common transcriptional analysis were identified. In the first pass-through, 56 testable genes were identified. This set was later expanded to include targets identified through phenotypic analysis and metabolomic profiling, for a total of 84 target genes (Table 2). The initial 56 targets were tested using a rapid high-throughput 96-well assay with AMB and MCZ to identify single-gene knockouts with elevated resistance to AFs (Table 2). Knockouts that were more resistant to at least one of the AFs were tested individually using the 24-well colony forming (CF) assay. Target genes selected after the initial 56 strains were assayed individually using the 24-well CF assay.
The first 56 S. cerevisiae strains were acquired from the deletion library and stored in 96-well plates in replicates of three. To start the assay, the plates were defrosted and 10 μl of stored cells were inoculated into 100 μl of fresh synthetic dextrose complete (SDC) media for 16 hours. These overnight cultures were diluted into a fresh 96-well plate with 100 μl of SDC to achieve an OD600 of approximately 0.2. Colony forming units (CFU) in each well were measured at the start of the assay and after 8 hours of incubation. The AF susceptibility of each strain was compared to that of wildtype. Strains with significant susceptibility differences from wildtype were assayed in 0.5 ml of SDC media using the 24-well plate CF assay described above.

S. cerevisiae = assay: Mitochondrial activity by MitoTracker Red fluorescence; details: drug added to glucose-incubated (SC, 2% glucose) S. cerevisiae
Experimental: It was next sought to assess the mitochondrial activity of AF-treated fungal cells. Yhe MitoTracker Red dye, which enters the mitochondrial matrix by utilizing the proton motive force and thus labels metabolically active mitochondria in viable cells was used (Arita et al., 2006; Tomas et al., 2011). Exponential phase S. cerevisiae were incubated in glucose-free synthetic complete (SC) media for 30 min and then switched to SC containing 2% glucose or non-fermentable acetate for 1.5 hours.
as §1

[4] = S. cerevisiae PAB103, SDH2 deletion
[5] = S. cerevisiae PAB107, NDE1 deletion
[6] = S. cerevisiae PAB112, MNE1 deletion
[7] = S. cerevisiae PAB113, FUM1 deletion
[8] = S. cerevisiae PAB114, TPK2 deletion
[9] = S. cerevisiae PAB119, CIT2 deletion
[10] = S. cerevisiae PAB121, SDH1 deletion
[11] = S. cerevisiae PAB122, TPK3 deletion
[12] = S. cerevisiae PAB124, TPK1 deletion
[13] = S. cerevisiae PAB132, CIT3 deletion
[14] = S. cerevisiae PAB135, NDI1 deletion
[15] = S. cerevisiae PAB145, CIT1 deletion

## Clc1ccc(COC(Cn2ccnc2)c2ccc(Cl)cc2Cl)c(Cl)c1 (stereo not drawn) [MCZ, miconazole]
[1]
  susceptibility of DSBR mutants compared to wildtype: particularly susceptible
[2]; S. cerevisiae CIT1/CIT2 deletions in cit3 background
  additive resistance on deleting the remaining citrate synthases in the cit3 background: not observed
[2]; [4]
  CFU (24-well colony forming assay), AF susceptibility vs wildtype: Resistant (″Resistant″ or ″Sensitive″ indicate at least a 5-fold CFU difference from wildtype at the final time point)
[2]; [5]
  CFU (24-well colony forming assay), AF susceptibility vs wildtype: Resistant (″Resistant″ or ″Sensitive″ indicate at least a 5-fold CFU difference from wildtype at the final time point)
[2]; [6]
  CFU (24-well colony forming assay), AF susceptibility vs wildtype: Resistant (″Resistant″ or ″Sensitive″ indicate at least a 5-fold CFU difference from wildtype at the final time point)
[2]; [7]
  CFU (24-well colony forming assay), AF susceptibility vs wildtype: Resistant (″Resistant″ or ″Sensitive″ indicate at least a 5-fold CFU difference from wildtype at the final time point)
[2]; [8]
  CFU (24-well colony forming assay), AF susceptibility vs wildtype: Resistant (″Resistant″ or ″Sensitive″ indicate at least a 5-fold CFU difference from wildtype at the final time point)
[2]; [9]
  CFU (24-well colony forming assay), AF susceptibility vs wildtype: Resistant (″Resistant″ or ″Sensitive″ indicate at least a 5-fold CFU difference from wildtype at the final time point)
[2]; [10]
  CFU (24-well colony forming assay), AF susceptibility vs wildtype: Resistant (″Resistant″ or ″Sensitive″ indicate at least a 5-fold CFU difference from wildtype at the final time point)
[2]; [11]
  CFU (24-well colony forming assay), AF susceptibility vs wildtype: Resistant (″Resistant″ or ″Sensitive″ indicate at least a 5-fold CFU difference from wildtype at the final time point)
[2]; [12]
  CFU (24-well colony forming assay), AF susceptibility vs wildtype: Resistant (″Resistant″ or ″Sensitive″ indicate at least a 5-fold CFU difference from wildtype at the final time point)
[2]; [13]
  CFU (24-well colony forming assay), AF susceptibility vs wildtype: Resistant (″Resistant″ or ″Sensitive″ indicate at least a 5-fold CFU difference from wildtype at the final time point)
[2]; [14]
  CFU (24-well colony forming assay), AF susceptibility vs wildtype: Resistant (″Resistant″ or ″Sensitive″ indicate at least a 5-fold CFU difference from wildtype at the final time point)
[2]; [15]
  CFU (24-well colony forming assay), AF susceptibility vs wildtype: Resistant (″Resistant″ or ″Sensitive″ indicate at least a 5-fold CFU difference from wildtype at the final time point)
[2]; S. cerevisiae PAB168, RAS1 deletion
  CFU (24-well colony forming assay), AF susceptibility vs wildtype: Resistant (″Resistant″ or ″Sensitive″ indicate at least a 5-fold CFU difference from wildtype at the final time point)
[2]; S. cerevisiae PAB171, RAS2 deletion
  CFU (24-well colony forming assay), AF susceptibility vs wildtype: Resistant (″Resistant″ or ″Sensitive″ indicate at least a 5-fold CFU difference from wildtype at the final time point)
[2]; S. cerevisiae, 50 mM thiourea for 30 minutes prior to the addition of AF drugs
  reduction of killing at 3 hours by thiourea: ~10 fold
[3]; S. cerevisiae PAB101, WT
  96 Well Screen, AF susceptibility vs wildtype: Normal
[3]; S. cerevisiae PAB102, HSP104 deletion
  96 Well Screen, AF susceptibility vs wildtype: Normal
[3]; [4]
  96 Well Screen, AF susceptibility vs wildtype: Resistant (″Resistant″ or ″Sensitive″ indicate at least a 5-fold CFU difference from wildtype at the final time point)
[3]; S. cerevisiae PAB104, FRE8 deletion
  96 Well Screen, AF susceptibility vs wildtype: Normal
[3]; S. cerevisiae PAB105, CHA4 deletion
  96 Well Screen, AF susceptibility vs wildtype: Normal
[3]; S. cerevisiae PAB106, FMS1 deletion
  96 Well Screen, AF susceptibility vs wildtype: Normal
[3]; [5]
  96 Well Screen, AF susceptibility vs wildtype: Resistant (″Resistant″ or ″Sensitive″ indicate at least a 5-fold CFU difference from wildtype at the final time point)
[3]; S. cerevisiae PAB108, ALD3 deletion
  96 Well Screen, AF susceptibility vs wildtype: Normal
[3]; S. cerevisiae PAB109, GAD1 deletion
  96 Well Screen, AF susceptibility vs wildtype: Normal
[3]; S. cerevisiae PAB110, PGM3 deletion
  96 Well Screen, AF susceptibility vs wildtype: Normal
[3]; S. cerevisiae PAB111, PYK2 deletion
  96 Well Screen, AF susceptibility vs wildtype: Resistant (″Resistant″ or ″Sensitive″ indicate at least a 5-fold CFU difference from wildtype at the final time point)
[3]; [6]
  96 Well Screen, AF susceptibility vs wildtype: Normal
[3]; [7]
  96 Well Screen, AF susceptibility vs wildtype: Resistant (″Resistant″ or ″Sensitive″ indicate at least a 5-fold CFU difference from wildtype at the final time point)
[3]; [8]
  96 Well Screen, AF susceptibility vs wildtype: Normal
[3]; S. cerevisiae PAB115, ATG29 deletion
  96 Well Screen, AF susceptibility vs wildtype: Normal
[3]; S. cerevisiae PAB116, ISU1 deletion
  96 Well Screen, AF susceptibility vs wildtype: Normal
[3]; S. cerevisiae PAB117, CYC7 deletion
  96 Well Screen, AF susceptibility vs wildtype: Normal
[3]; S. cerevisiae PAB118, ARN1 deletion
  96 Well Screen, AF susceptibility vs wildtype: Normal
[3]; [9]
  96 Well Screen, AF susceptibility vs wildtype: Resistant (″Resistant″ or ″Sensitive″ indicate at least a 5-fold CFU difference from wildtype at the final time point)
[3]; S. cerevisiae PAB120, HSP30 deletion
  96 Well Screen, AF susceptibility vs wildtype: Resistant (″Resistant″ or ″Sensitive″ indicate at least a 5-fold CFU difference from wildtype at the final time point)
[3]; [10]
  96 Well Screen, AF susceptibility vs wildtype: Resistant (″Resistant″ or ″Sensitive″ indicate at least a 5-fold CFU difference from wildtype at the final time point)
[3]; [11]
  96 Well Screen, AF susceptibility vs wildtype: Resistant (″Resistant″ or ″Sensitive″ indicate at least a 5-fold CFU difference from wildtype at the final time point)
[3]; S. cerevisiae PAB123, ISU2 deletion
  96 Well Screen, AF susceptibility vs wildtype: Normal
[3]; [12]
  96 Well Screen, AF susceptibility vs wildtype: Normal
[3]; S. cerevisiae PAB125, MID2 deletion
  96 Well Screen, AF susceptibility vs wildtype: Normal
[3]; S. cerevisiae PAB126, SSK1 deletion
  96 Well Screen, AF susceptibility vs wildtype: Normal
[3]; S. cerevisiae PAB127, HSP42 deletion
  96 Well Screen, AF susceptibility vs wildtype: Normal
[3]; S. cerevisiae PAB128, PIG1 deletion
  96 Well Screen, AF susceptibility vs wildtype: Normal
[3]; S. cerevisiae PAB130, UGA1 deletion
  96 Well Screen, AF susceptibility vs wildtype: Normal
[3]; S. cerevisiae PAB131, MTL1 deletion
  96 Well Screen, AF susceptibility vs wildtype: Normal
[3]; [13]
  96 Well Screen, AF susceptibility vs wildtype: Resistant (″Resistant″ or ″Sensitive″ indicate at least a 5-fold CFU difference from wildtype at the final time point)
[3]; S. cerevisiae PAB133, ZWF1 deletion
  96 Well Screen, AF susceptibility vs wildtype: Normal
[3]; S. cerevisiae PAB134, SUM1 deletion
  96 Well Screen, AF susceptibility vs wildtype: Normal
[3]; [14]
  96 Well Screen, AF susceptibility vs wildtype: Normal
[3]; S. cerevisiae PAB136, PGM2 deletion
  96 Well Screen, AF susceptibility vs wildtype: Resistant (″Resistant″ or ″Sensitive″ indicate at least a 5-fold CFU difference from wildtype at the final time point)
[3]; S. cerevisiae PAB137, HFD1 deletion
  96 Well Screen, AF susceptibility vs wildtype: Normal
[3]; S. cerevisiae PAB138, PUF2 deletion
  96 Well Screen, AF susceptibility vs wildtype: Normal
[3]; S. cerevisiae PAB139, TDH1 deletion
  96 Well Screen, AF susceptibility vs wildtype: Normal
[3]; S. cerevisiae PAB140, GUD1 deletion
  96 Well Screen, AF susceptibility vs wildtype: Sensitive (″Resistant″ or ″Sensitive″ indicate at least a 5-fold CFU difference from wildtype at the final time point)
[3]; S. cerevisiae PAB141, ATG15 deletion
  96 Well Screen, AF susceptibility vs wildtype: Normal
[3]; S. cerevisiae PAB142, TDH2 deletion
  96 Well Screen, AF susceptibility vs wildtype: Normal
[3]; S. cerevisiae PAB143, ATP1 deletion
  96 Well Screen, AF susceptibility vs wildtype: Normal
[3]; S. cerevisiae PAB144, UGA2 deletion
  96 Well Screen, AF susceptibility vs wildtype: Normal
[3]; [15]
  96 Well Screen, AF susceptibility vs wildtype: Resistant (″Resistant″ or ″Sensitive″ indicate at least a 5-fold CFU difference from wildtype at the final time point)
[3]; S. cerevisiae PAB146, SOLI deletion
  96 Well Screen, AF susceptibility vs wildtype: Normal
[3]; S. cerevisiae PAB147, PAN6 deletion
  96 Well Screen, AF susceptibility vs wildtype: Normal
[3]; S. cerevisiae PAB148, SOL4 deletion
  96 Well Screen, AF susceptibility vs wildtype: Normal
[3]; S. cerevisiae PAB149, YAK1 deletion
  96 Well Screen, AF susceptibility vs wildtype: Sensitive (″Resistant″ or ″Sensitive″ indicate at least a 5-fold CFU difference from wildtype at the final time point)
[3]; S. cerevisiae PAB150, PBS2 deletion
  96 Well Screen, AF susceptibility vs wildtype: Sensitive (″Resistant″ or ″Sensitive″ indicate at least a 5-fold CFU difference from wildtype at the final time point)
[3]; S. cerevisiae PAB152, GPD1 deletion
  96 Well Screen, AF susceptibility vs wildtype: Sensitive (″Resistant″ or ″Sensitive″ indicate at least a 5-fold CFU difference from wildtype at the final time point)
[3]; S. cerevisiae PAB153, SHO1 deletion
  96 Well Screen, AF susceptibility vs wildtype: Sensitive (″Resistant″ or ″Sensitive″ indicate at least a 5-fold CFU difference from wildtype at the final time point)
[3]; S. cerevisiae PAB154, FET3 deletion
  96 Well Screen, AF susceptibility vs wildtype: Sensitive (″Resistant″ or ″Sensitive″ indicate at least a 5-fold CFU difference from wildtype at the final time point)
[3]; S. cerevisiae PAB155, FBP1 deletion
  96 Well Screen, AF susceptibility vs wildtype: Sensitive (″Resistant″ or ″Sensitive″ indicate at least a 5-fold CFU difference from wildtype at the final time point)
[3]; S. cerevisiae PAB156, COX6 deletion
  96 Well Screen, AF susceptibility vs wildtype: Sensitive (″Resistant″ or ″Sensitive″ indicate at least a 5-fold CFU difference from wildtype at the final time point)
S. cerevisiae
  increase of MitoTracker fluorescence: 70 fold
